In patent US4954502A, “1-indolyalkyl-4-(substituted-pyridinyl)piperazines” (Bristol-Myers Squibb Company, priority 1989, dated 1990):
Structures can show the parent of a compound that is named as a salt.

These compounds were tested against T1, serotonin uptake (Rattus norvegicus, UniProt P31652) (assay: Inhibition of serotonin uptake (in vitro): inhibition of synaptosomal reuptake of tritiated serotonin).
T1 construct: from tissue
Type: biochemical
Procedure: Determination of endogenous monoaminergic re-uptake inhibition values both for serotonin and norepinephrine was accomplished using test methods described by P. Skolnick, et al.. Br. J. Pharmacology (1985), 86, pp. 637-644; with only minor modifications. In vitro IC50 (nM) test values were determined for representative compounds of Formula I based on their inhibition of synaptosomal reuptake of tritiated serotonin. Test data IC50 values lower than 500 nM are considered to reflect activity as an inhibitor of serotonin reuptake. Compounds with Ic50 values lower than 1OO nM comprise preferred compounds.

T1 sequence (P31652 whole entry): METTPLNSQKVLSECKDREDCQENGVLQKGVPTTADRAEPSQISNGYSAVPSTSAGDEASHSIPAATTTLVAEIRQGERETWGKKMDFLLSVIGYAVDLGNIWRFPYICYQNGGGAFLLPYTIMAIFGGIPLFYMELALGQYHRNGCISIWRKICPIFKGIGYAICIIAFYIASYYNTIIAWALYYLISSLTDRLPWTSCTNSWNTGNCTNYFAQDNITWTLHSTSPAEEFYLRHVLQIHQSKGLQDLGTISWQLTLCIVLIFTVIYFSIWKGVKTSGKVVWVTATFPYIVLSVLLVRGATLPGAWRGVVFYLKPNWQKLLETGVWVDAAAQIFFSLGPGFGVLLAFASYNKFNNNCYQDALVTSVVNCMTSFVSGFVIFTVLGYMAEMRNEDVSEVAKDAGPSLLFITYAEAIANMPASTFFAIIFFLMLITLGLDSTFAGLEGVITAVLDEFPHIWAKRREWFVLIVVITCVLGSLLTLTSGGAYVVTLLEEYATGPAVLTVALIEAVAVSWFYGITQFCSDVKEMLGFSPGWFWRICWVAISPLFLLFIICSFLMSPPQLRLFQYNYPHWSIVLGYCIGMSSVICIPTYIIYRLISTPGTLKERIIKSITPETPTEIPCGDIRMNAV

Row | Compound | IC50 [nM]
1 | Clc1cccc(N2CCN(CCc3c[nH]c4ccccc34)CC2)n1 [Example 14, 4-[6-Chloro-2-pyridinyl]-1-[2-(1H-indol-3-yl)-ethyl]piperazine hydrochloride] | 74
2 | COc1cccnc1N1CCN(C(C)CCc2c[nH]c3ccccc23)CC1 (stereo not shown) [Example 68] | 36.7
3 | COc1ccc(Cl)nc1N1CCN(CCCc2c[nH]c3ccccc23)CC1 [Example 71] | 4.9
4 | COc1cc2[nH]cc(CCN3CCN(c4cccc(Cl)n4)CC3)c2cc1OC [Example 48] | 127
5 | FC(F)(F)c1cccc(N2CCN(CCc3c[nH]c4ccc(Cl)cc34)CC2)n1 [Example 63] | 437
6 | COc1cccnc1N1CCN(CCc2c[nH]c3ccc(F)cc23)CC1 [Example 39] | 0.2
7 | Clc1cccc(N2CCN(CCCc3c[nH]c4ccccc34)CC2)n1 [Example 19, 1-(6-Chloro-2-pyridinyl)-4-[3-(1H-indol-3-yl)propyl]piperazine hydrochloride] | 98
8 | COc1cccnc1N1CCN(CCCc2c[nH]c3ccccc23)CC1 [Example 20, 1-[3-(1H-indol-3-yl)-propyl]-4-[3-methoxy-2-pyridinyl]piperazine dihydrochloride hydrate] | 1.1
9 | FC(F)(F)c1cccc(N2CCN(CCCCc3c[nH]c4ccccc34)CC2)n1 [Example 32] | 259
10 | Fc1ccc2[nH]cc(C3=CCC(N4CCN(c5cccc(Cl)n5)CC4)CC3)c2c1 (stereo not shown) [Example 70] | 141
11 | Clc1cccc(N2CCN(C3CC=C(c4c[nH]c5ccccc45)CC3)CC2)n1 (stereo not shown) [Example 45] | 100
12 | CC1CN(c2cccc(Cl)n2)CCN1CCCc1c[nH]c2ccccc12 (stereo not shown) [Example 72] | 18.7
13 | Cn1cc(CCCN2CCN(c3cccc(Cl)n3)CC2)c2ccccc21 [Example 51] | 86
14 | COc1cccnc1N1CCN(CCCCc2c[nH]c3ccccc23)CC1 [Example 21, 1-[4-(1H-indol-3-yl)butyl]-4-(3-methoxy-2-pyridine-1)piperazine dihydrochloride] | 58
15 | COc1cccnc1N1C[C@H]2C[C@@H]1CN2CCCc1c[nH]c2ccccc12 [Example 35] | 152
16 | Clc1cccc(N2CCN(CCCCc3c[nH]c4ccccc34)CC2)n1 [Example 31] | 27
17 | FC(F)(F)c1ccnc(N2CCN(CCCc3c[nH]c4ccccc34)CC2)c1 [Example 33] | 105
18 | COc1ccc2[nH]cc(C3=CCC(N4CCN(c5cccc(Cl)n5)CC4)CC3)c2c1 (stereo not shown) [Example 23, 3-[4-[4-(6-Chloro-2-pvridinyl)-1-piperazinyl]-1cyclohexen-1-yl]-5-methoxy-1H-indole] | 99
19 | COc1ccc2[nH]cc(CCN3CCN(c4cccc(Cl)n4)CC3)c2c1 [Example 40] | 177
20 | COc1cccnc1N1C[C@H]2C[C@@H]1CN2CCc1c[nH]c2ccccc12 [Example 26] | 106
21 | COc1cccnc1N1C[C@@H]2C[C@H]1CN2CCCc1c[nH]c2ccccc12 [Example 34] | 5.6
22 | FC(F)(F)c1ccnc(N2CCN(CCc3c[nH]c4ccccc34)CC2)c1 [Example 37] | 386
23 | COc1ccc2c(CCN3CCN(c4cccc(Cl)n4)CC3)c[nH]c2c1 [Example 65] | 134
24 | Fc1ccc2[nH]cc(CCN3CCN(c4cccc(Cl)n4)CC3)c2c1 [Example 41] | 2.8
25 | COc1cccnc1N1CCN(CCCc2cn(C)c3ccccc23)CC1 [Example 50] | 3.7

Row | Compound | IC50 [nM]
26 | Cn1cc(CCN2CCN(c3cccc(Cl)n3)CC2)c2ccccc21 [Example 55] | 126
27 | CC(CCc1c[nH]c2ccccc12)N1CCN(c2cccc(Cl)n2)CC1 (stereo not shown) [Example 67] | 142
28 | FC(F)(F)c1cccnc1N1CCN(CCc2c[nH]c3ccccc23)CC1 [Example 17, 1-[2-(1H-indol-3-yl)-ethyl]-4-[3-trifluoromethyl-2-pyridinyl]piperazine hydrochloride] | 37
29 | Clc1cccc(N2C[C@@H]3C[C@H]2CN3CCc2c[nH]c3ccccc23)n1 [Example 28] | 77
30 | Clc1ccc2[nH]cc(CCN3CCN(c4cccc(Cl)n4)CC3)c2c1 [Example 57] | 166
31 | FC(F)(F)c1cccc(N2CCN(CCc3c[nH]c4ccccc34)CC2)n1 [Example 15, 1-[2-(1H-indol-3-yl)-ethyl]-4-6-trifluoromethyl-2-pyridinyl]piperazine hydrochloride] | 73
32 | COc1cccnc1N1CCN(CCc2c[nH]c3ccccc23)CC1 [Example 18, 1-[2-(1H-indol-3-yl)-ethyl]-4-[3-methoxy-2-pyridinyl]-piperazine] | 13
33 | Clc1cccc(N2C[C@H]3C[C@@H]2CN3CCc2c[nH]c3ccccc23)n1 [Example 29] | 106
34 | COc1cccnc1N1CCN(CCc2c[nH]c3ccccc23)C(C)C1 (stereo not shown) [Example 25] | 8.6
35 | Fc1ccc2[nH]cc(CCN3CCN(c4cccc(C(F)(F)F)n4)CC3)c2c1 [Example 43] | 73
36 | CC(Cc1c[nH]c2ccccc12)N1CCN(c2cccc(Cl)n2)CC1 (stereo not shown) [Example 36, 3-[2-[4-(6-Chloro-2-pyridyl)-1-piperazinyl]propyl]-indole] | 75
37 | COc1ccc2[nH]cc(CCN3CCN(c4cccc(C(F)(F)F)n4)CC3)c2c1 [Example 44] | 560
38 | FC(F)(F)c1cccc(N2CCN(CCCc3c[nH]c4ccccc34)CC2)n1 [Example 30] | 192
39 | COc1cc2[nH]cc(CCN3CCN(c4cccc(C(F)(F)F)n4)CC3)c2cc1OC [Example 69] | 479
40 | COc1cccnc1N1C[C@@H]2C[C@H]1CN2CCc1c[nH]c2ccccc12 [Example 27] | 12.5
41 | NC(=O)c1ccc2[nH]cc(C3=CCC(N4CCN(c5cccc(Cl)n5)CC4)CC3)c2c1 (stereo not shown) [Example 46] | 27
42 | COc1ccc2c(CCN3CCN(c4ncccc4OC)CC3)c[nH]c2c1 [Example 66] | 35.9
43 | Clc1cccnc1N1CCN(CCc2c[nH]c3ccccc23)CC1 [Example 42] | 520
44 | COc1cccnc1N1CCN(CCc2c[nH]c3ccccc23)C(C)C1 (stereo not shown) [Example 64] | < 1
45 | Clc1ccc(N2CCN(CCc3c[nH]c4ccccc34)CC2)nc1 [Example 54] | 30
46 | COc1ccc2[nH]cc(CCN3CCN(c4ncccc4OC)CC3)c2c1 [Example 38] | 11
47 | COc1cccc(N2CCN(CCc3c[nH]c4ccccc34)CC2)n1 [Example 16, 1-[2-(1H-indol-3-yl)-ethyl]-4[6-methoxy-2-pyridinyl-piperazine hydrate] | 88
48 | COc1cccnc1N1CCN(CCc2cn(C)c3ccccc23)CC1 [Example 47] | 24
49 | COc1cccnc1N1CCN(CCc2c[nH]c3ccc(Cl)cc23)CC1 [Example 56] | < 1
